Test results from ChEMBL document CHEMBL4393656, “Cationic biaryl 1,2,3-triazolyl peptidomimetic amphiphiles targeting Clostridioides (Clostridium) difficile: Synthesis, antibacterial evaluation and an in vivo C. difficile infection model” (Eur J Med Chem, 2019).
The source made the active and inactive calls. The calls are words filed in the database; no cut-off is given here.

Columns and labels:
Clostridioides difficile [1] = test: (§1) Antibacterial activity against Clostridium difficile ribotype 027 M7404 spores infected in antibiotic cocktail-induced CDI C57BL/6J mouse model assessed as decrease in diarrhea at 100 mg/kg administered via oral gavage for every 12 hrs starting from 6 hrs post-infection and measured at 24 hrs post infection; type: functional, organism-based; conditions: genomovar ribotype 027 M7404
Clostridioides difficile [2] = test: Antibacterial activity against Clostridium difficile ATCC 700057 incubated for 2 to 4 hrs in pre-reduced brucella broth supplemented with haemin/vitamin K and further incubation in anaerobic condition for 48 hrs; type: functional
Clostridioides difficile [3] = test: as §1, with “assessed as survival rate at 100” for “assessed as decrease in diarrhea at 100”, “post infection (reference value: 0%)” for “post infection”; type: functional, genomovar ribotype 027 M7404
[4] = Drug accumulation in blood of antibiotic cocktail-induced CDI C57BL/6J mouse model infected with Clostridium difficile ribotype 027 M7404 spores at 100 mg/kg administered via oral gavage for every 12 hrs starting from 6 hrs post-infection by LRMS analysis; type: ADME, organism-based; conditions: in vivo
[5] = Drug accumulation in feces of antibiotic cocktail-induced CDI C57BL/6J mouse model infected with Clostridium difficile ribotype 027 M7404 spores at 100 mg/kg administered via oral gavage for every 12 hrs starting from 6 hrs post-infection by LRMS analysis; type: ADME, organism-based; conditions: in vivo
[6] = Drug localization in blood of C57BL/6J mouse measured after 2 hr by LRMS analysis; type: ADME, tissue-based
Escherichia coli [7] = test: Induction of cytoplasmic membrane depolarization in Escherichia coli NCTC 10418 at 4 ug/ml by DiSC3-5 dye based fluorescence method; type: organism-based
Escherichia coli [8] = test: Induction of cytoplasmic membrane permeabilization in Escherichia coli NCTC 10418 at 4 ug/ml by propidium iodide staining based fluorescence method; type: organism-based
[9] = Haemolytic activity in sheep erythrocytes assessed as induction of haemolysis at 50 ug/ml incubated for 2 hrs relative to control; type: cell-based, Ovis aries, Erythrocyte; conditions: read-out: Activity
[10] = Solubility of the compound in 10% DMSO solution; type: physicochemical
Clostridioides difficile [11] = test: as §1, with “protection against bacterial infection” for “decrease in diarrhea”, “2 days” for “24 hrs”; type: functional, organism-based; conditions: genomovar ribotype 027 M7404
Clostridioides difficile [12] = test: as §1, with “weight loss” for “diarrhea”; type: functional, organism-based; conditions: genomovar ribotype 027 M7404
Staphylococcus aureus [13] = test: Growth inhibition of Staphylococcus aureus ATCC 29213 incubated in MHB broth for 24 hrs; type: organism-based
Enterococcus faecalis = test: Growth inhibition of Enterococcus faecalis ATCC 29212 incubated in MHB broth for 24 hrs; type: organism-based
Streptococcus pneumoniae = test: Growth inhibition of Streptococcus pneumoniae ATCC 49619 incubated in MHB medium with lysed horse blood and 5% CO2 for 24 hrs; type: organism-based
Clostridioides difficile [14] = test: Antibacterial activity against Clostridium difficile NSW132 RT027 incubated for 2 to 4 hrs in pre-reduced brucella broth supplemented with haemin/vitamin K and further incubation in anaerobic condition for 48 hrs; type: functional
Escherichia coli [15] = test: Growth inhibition of Escherichia coli ATCC 25922 incubated for 18 hrs; type: organism-based
Klebsiella pneumoniae = test: Growth inhibition of Klebsiella pneumoniae ATCC 700603 incubated for 18 hrs; type: organism-based
Acinetobacter baumannii = test: Growth inhibition of Acinetobacter baumannii ATCC 19606 incubated for 18 hrs without shaking by absorbance based monochromator plate reader analysis; type: organism-based, ATCC 19606 = CIP 70.34 = JCM 6841; conditions: in vitro
Pseudomonas aeruginosa = test: Growth inhibition of Pseudomonas aeruginosa ATCC 27853 incubated for 18 hrs; type: organism-based
Staphylococcus aureus [16] = test: Growth inhibition of methicillin-resistant Staphylococcus aureus ATCC 43300 incubated for 18 hrs; type: organism-based
[17] = Cytotoxicity against HEK293 cells assessed as decrease in cell viability after 20 hrs by resazurin dye-based fluorescence assay; conditions: human
[18] = Haemolytic activity in sheep erythrocytes assessed as induction of haemolysis at 5 ug/ml incubated for 2 hrs relative to control; type: cell-based, Ovis aries, Erythrocyte; conditions: read-out: Activity
Clostridioides difficile [19] = test: as §1, with “decrease in fecal spore load at 100” for “decrease in diarrhea at 100”, “post infection by heat shock based plating method” for “post infection”; type: functional, organism-based; conditions: genomovar ribotype 027 M7404
Staphylococcus aureus [20] = test: Induction of cytoplasmic membrane depolarization in Staphylococcus aureus ATCC 29213 at 32 ug/ml by DiSC3-5 dye based fluorescence method; type: organism-based
Escherichia coli [21] = test: Induction of cytoplasmic membrane depolarization in Escherichia coli NCTC 10418 at 64 ug/ml by DiSC3-5 dye based fluorescence method; type: organism-based
Staphylococcus aureus [22] = test: Induction of cytoplasmic membrane permeabilization in Staphylococcus aureus ATCC 29213 at 32 ug/ml by propidium iodide staining based fluorescence method relative to control
Escherichia coli [23] = test: Induction of cytoplasmic membrane permeabilization in Escherichia coli NCTC 10418 at 32 ug/ml by propidium iodide staining based fluorescence method; type: organism-based
Staphylococcus aureus [24] = test: Induction of cytoplasmic membrane permeabilization in Staphylococcus aureus ATCC 29213 at 32 ug/ml measured after 10 mins by propidium iodide staining based fluorescence method; type: organism-based
Staphylococcus aureus [25] = test: Induction of cytoplasmic membrane permeabilization in Staphylococcus aureus ATCC 29213 at 32 ug/ml measured after 40 mins by propidium iodide staining based fluorescence method; type: organism-based
[26] = Aqueous solubility of the DMSO-dissolved compound in >200 uL water at 5 mg; type: physicochemical; conditions: buffer
Clostridioides difficile [27] = test: as §1, with “physiological appearance score” for “diarrhea”; type: functional, organism-based; conditions: genomovar ribotype 027 M7404
Clostridioides difficile [28] = test: Antibacterial activity against Clostridium difficile ribotype 027 M7404; type: functional; conditions: genomovar ribotype 027 M7404

Compound	Activity (Clostridioides difficile [1])	MIC (Clostridioides difficile [2]) [µg/mL]	hemolysis at 2 h, 50 ug/ml [9] [%]	MIC (Staphylococcus aureus [13]) [µg/mL]	MIC (Enterococcus faecalis) [µg/mL]	MIC (Streptococcus pneumoniae) [µg/mL]	MIC (Clostridioides difficile [14]) [µg/mL]	MIC (Escherichia coli [15]) [µg/mL]	MIC (Klebsiella pneumoniae) [µg/mL]	MIC (Acinetobacter baumannii) [µg/mL]	MIC (Pseudomonas aeruginosa) [µg/mL]	MIC (Staphylococcus aureus [16]) [µg/mL]	CC50 at 20 h [17] [µg/mL]	hemolysis at 2 h, 5 ug/ml [18] [%]	other results
CC(C)CCOc1ccc2ccccc2c1-c1c(OCc2cn(C[C@@H](CCCCN)NC(=O)[C@@H](CCCNC(=N)N)NC(=O)CCc3ccccc3)nn2)ccc2ccccc12.Cl.Cl	Active	8													Activity (Clostridioides difficile [3]): 50%; Drug uptake [4]: Not Active; Drug uptake [5]: Active; Drug uptake [6]: Not Active
COLISTIN															Activity (Escherichia coli [7]): Active; Activity (Escherichia coli [8]): Active
CC(C)CCOc1ccc2ccccc2c1-c1c(OCC(=O)N[C@H](CCCNC(=N)N)Cn2cc(-c3ccccc3)nn2)ccc2ccccc12.Cl		8	86												solubility [10]: Insoluble
CC(C)CCOc1ccccc1-c1ccccc1OCc1cn([C@H](CCCNC(=N)N)C(=O)NC2CCCCC2)nn1.Cl	Active	8	81.8	4	4	4	16	> 32	> 32	32	> 32	4	19.7	1.4	Activity (Clostridioides difficile [11]): inactive; Activity (Clostridioides difficile [12]): inactive; Activity (Clostridioides difficile [19]): Active; Activity (Staphylococcus aureus [20]): Active; Activity (Escherichia coli [21]): Active; Activity (Staphylococcus aureus [22]): >500%; Activity (Escherichia coli [23]): Active; Activity (Staphylococcus aureus [24]): Active
CC(C)CCOc1ccccc1-c1ccccc1OCc1cn([C@H](CCCCN)C(=O)N[C@H](CCCNC(=N)N)Cn2cc(CCc3ccccc3)nn2)nn1.Cl.Cl		16	12.6	4	8	8	16	8	16	8	8	2	16.4	1.4	Activity (Staphylococcus aureus [25]): Active; Activity (Staphylococcus aureus [20]): Active; Activity (Escherichia coli [21]): Active; Activity (Staphylococcus aureus [22]): >500%; Activity (Escherichia coli [23]): Active
CC(C)CCOc1ccccc1-c1ccccc1OCc1cn([C@H](CCCCN)C(=O)NCC2CCCCC2)nn1.Cl		16	98	8	8	8	32	> 32	> 32	32	> 32	8	5.6	0	solubility [26]: Soluble
CC(C)CCOc1ccc2ccccc2c1-c1c(OCC(=O)N[C@H](CCCNC(=N)N)C(=O)NCc2ccccc2)ccc2ccccc12.Cl	inactive	8	100	2	2	2	8	> 32	> 32	> 32	> 32	4	> 32	0.3	Activity (Clostridioides difficile [11]): inactive; Activity (Clostridioides difficile [12]): inactive; Activity (Clostridioides difficile [27]): inactive; MIC (Clostridioides difficile [28]): 2 µg/mL
